What was measured:
bedstraw = assay: Test B pre/postemergence bedstraw; type: in vivo, Galium aparine; conditions: for Bedstraw plant response rating: 10 is complete control; for Plant response rating, Bedstraw: scale of 0 to 10 where 0 is no effect and 10 is complete control
In short: (§1)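 Herbicidal effect was estimated by eye on a ten-point control scale after plants spent twelve to sixteen days in a greenhouse following soil or foliar treatment. Foliar sprays targeted plants at one to four leaves; all doses were formulated in a non-phytotoxic solvent with surfactant.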

blackgrass = assay: Test B pre/postemergence blackgrass; type: in vivo, Alopecurus myosuroides
In short: as §1

surinam grass = assay: Test B pre/postemergence surinam grass; type: in vivo, Brachiaria decumbens
In short: as §1

cocklebur = assay: Test B pre/postemergence cocklebur; type: in vivo, Xanthium strumarium
In short: as §1

corn = assay: Test B pre/postemergence corn; type: in vivo, Zea mays
In short: as §1

crabgrass = assay: Test B pre/postemergence crabgrass; type: in vivo, Digitaria sanguinalis
In short: as §1

giant foxtail = assay: Test B pre/postemergence giant foxtail; type: in vivo, Setaria faberii
In short: as §1

morningglory = assay: Test B pre/postemergence morningglory; type: in vivo, Ipomoea hederacea
In short: as §1

pigweed = assay: Test B pre/postemergence pigweed; type: in vivo, Amaranthus retroflexus
In short: as §1

rape = assay: Test B pre/postemergence rape; type: in vivo, Brassica napus
In short: as §1

soybean = assay: Test B pre/postemergence soybean; type: in vivo, Glycine max
In short: as §1

sugar beet = assay: Test B pre/postemergence sugar beet; type: in vivo, Beta vulgaris
In short: as §1

velvetleaf = assay: Test B pre/postemergence velvetleaf; type: in vivo, Abutilon theophrasti
In short: as §1

wheat = assay: Test B pre/postemergence wheat; type: in vivo, Triticum aestivum
In short: as §1

wild oat = assay: Test B pre/postemergence wild oat; type: in vivo, Avena fatua
In short: as §1

purple nutsedge = assay: Test B pre/postemergence purple nutsedge; type: in vivo, Cyperus rotundus
In short: as §1

[1] = Postemergence, Rate 62 g/ha, scale of 0 to 10, 0 is no effect, 10 is complete control
[2] = Postemergence, Rate 125 g/ha, scale 0 to 10, 0 is no effect, 10 is complete control
[3] = Postemergence, Rate 500 g/ha, scale 0 to 10, 0 is no effect, 10 is complete control
[4] = Preemergence, Rate 62 g/ha, scale of 0 to 10 where 0 is no effect and 10 is complete control
[5] = Preemergence, Rate 125 g/ha, scale 0 to 10, 0 is no effect, 10 is complete control
[6] = Rate 250 g/ha, Postemergence, scale of 0 to 10 where 0 is no effect and 10 is complete control
[7] = Preemergence, Rate 500 g/ha, scale of 0 to 10 where 0 is no effect and 10 is complete control
[8] = Preemergence, Rate 250 g/ha, scale 0 to 10, 0 is no effect, 10 is complete control

CCCCn1c(=O)on(C(=O)N(c2ccc(Cl)cc2)C(C)C)c1=O [Compound 527]
6: Plant response rating, Morningglory (morningglory; [3]) | Sugarbeets plant response rating (sugar beet; [5]) | Sugarbeets plant response rating (0 to 10 scale) (sugar beet; Preemergence, Rate 250 g/ha) | Sugarbeets plant response rating (sugar beet; [7])
10: Plant response rating, Crabgrass (crabgrass; [3]) | Crabgrass plant response rating (crabgrass; [5]) | Crabgrass plant response rating (0 to 10 scale) (crabgrass; Preemergence, Rate 250 g/ha) | Crabgrass plant response rating (crabgrass; [7]) | Giant foxtail plant response rating (giant foxtail; [5]) | Giant foxtail plant response rating (0 to 10 scale) (giant foxtail; Preemergence, Rate 250 g/ha) | Giant foxtail plant response rating (giant foxtail; [7])
3: Blackgrass plant response rating (blackgrass; [2]) | Cocklebur plant response rating (cocklebur; [7]) | Morningglory plant response rating (morningglory; [1]) | Morningglory plant response rating (morningglory; [2]) | Soybean plant response rating (soybean; [1]) | Velvetleaf plant response rating (velvetleaf; [1]) | Plant response rating, Velvetleaf (velvetleaf; [3]) | Plant response rating, Velvetleaf (velvetleaf; [6]) | Wild oats plant response rating (0 to 10 scale) (wild oat; Preemergence, Rate 250 g/ha)
7: Plant response rating, Blackgrass (blackgrass; [3])
4: Plant response rating, Blackgrass (blackgrass; [6]) | B. signalgrass plant response rating (0 to 10 scale, 0 is no effect, 10 is complete control) (surinam grass; Preemergence, Rate 250 g/ha) | Crabgrass plant response rating (crabgrass; [1]) | Crabgrass plant response rating (crabgrass; [2]) | Redroot pigweed plant response rating (pigweed; [5]) | Redroot pigweed plant response rating (0 to 10 scale) (pigweed; Preemergence, Rate 250 g/ha) | Redroot pigweed plant response rating (pigweed; [7]) | Soybean plant response rating (soybean; [2]) | Plant response rating, Soybean (soybean; [6])
0: Bedstraw plant response rating (bedstraw; Postemergence, Rate 62 g/ha, scale of 0 to 10, 0 is no effect) | Plant response rating, Bedstraw (bedstraw; Preemergence, Rate 62 g/ha) | Blackgrass plant response rating (blackgrass; [1]) | Plant response rating, Blackgrass (blackgrass; [4]) | B. signalgrass plant response rating (surinam grass; [1]) | B. signalgrass plant response rating (surinam grass; [2]) | Plant response rating, B. signalgrass (surinam grass; [6]) | Cocklebur plant response rating (cocklebur; [1]) | Cocklebur plant response rating (cocklebur; [2]) | Plant response rating, Cocklebur (cocklebur; [4]) | Cocklebur plant response rating (cocklebur; [5]) | Cocklebur plant response rating (0 to 10 scale) (cocklebur; Preemergence, Rate 250 g/ha) | Corn plant response rating (corn; [1]) | Corn plant response rating (corn; [2]) | Plant response rating, Corn (corn; [3]) | Plant response rating, Corn (corn; [4]) | Corn plant response rating (corn; [5]) | Corn plant response rating (0 to 10 scale) (corn; Preemergence, Rate 250 g/ha) | Corn plant response rating (corn; [7]) | Plant response rating, Corn (corn; [6]) | Plant response rating, Morningglory (morningglory; [4]) | Morningglory plant response rating (morningglory; [5]) | Morningglory plant response rating (0 to 10 scale) (morningglory; Preemergence, Rate 250 g/ha) | Redroot pigweed plant response rating (pigweed; [1]) | Redroot pigweed plant response rating (pigweed; [2]) | Plant response rating, Redroot pigweed (pigweed; [3]) | Plant response rating, Redroot pigweed (pigweed; [4]) | Plant response rating, Redroot pigweed (pigweed; [6]) | Rape plant response rating (rape; [1]) | Rape plant response rating (rape; [2]) | Plant response rating, Rape (rape; [4]) | Plant response rating, Rape (rape; [6]) | Plant response rating, Soybean (soybean; [4]) | Soybean plant response rating (soybean; [5]) | Soybean plant response rating (0 to 10 scale) (soybean; Preemergence, Rate 250 g/ha) | Soybean plant response rating (soybean; [7]) | Sugarbeets plant response rating (sugar beet; [1]) | Sugarbeets plant response rating (sugar beet; [2]) | Plant response rating, Sugarbeets (sugar beet; [4]) | Plant response rating, Sugarbeets (sugar beet; [6]) | Plant response rating, Velvetleaf (velvetleaf; [4]) | Wheat plant response rating (wheat; [1]) | Wheat plant response rating (wheat; [2]) | Plant response rating, Wheat (wheat; [3]) | Plant response rating, Wheat (wheat; [4]) | Wheat plant response rating (wheat; [5]) | Wheat plant response rating (0 to 10 scale) (wheat; Preemergence, Rate 250 g/ha) | Plant response rating, Wheat (wheat; [6]) | Wild oats plant response rating (wild oat; [1]) | Wild oats plant response rating (wild oat; [2]) | Plant response rating, Wild oats (wild oat; [3]) | Plant response rating, Wild oats (wild oat; [4]) | Wild oats plant response rating (wild oat; [5]) | Plant response rating, Wild oats (wild oat; [6]) | Nutsedge plant response rating (purple nutsedge; [1]) | Plant response rating, Nutsedge (purple nutsedge; [4]) | Nutsedge plant response rating (purple nutsedge; [5]) | Nutsedge plant response rating (0 to 10 scale) (purple nutsedge; Preemergence, Rate 250 g/ha) | Nutsedge plant response rating (purple nutsedge; [7]) | Plant response rating, Nutsedge (purple nutsedge; [6])
9: Plant response rating, B. signalgrass (surinam grass; [3]) | Plant response rating, Crabgrass (crabgrass; [4]) | Plant response rating, Crabgrass (crabgrass; [6]) | Plant response rating, Giant foxtail (giant foxtail; [3]) | Plant response rating, Giant foxtail (giant foxtail; [4])
2: Blackgrass plant response rating (blackgrass; [5]) | Blackgrass plant response rating (0 to 10 scale) (blackgrass; Preemergence, Rate 250 g/ha) | Plant response rating, B. signalgrass (surinam grass; [4]) | B. signalgrass plant response rating (surinam grass; [5]) | Plant response rating, Cocklebur (cocklebur; [3]) | Plant response rating, Cocklebur (cocklebur; [6]) | Morningglory plant response rating (morningglory; [7]) | Plant response rating, Rape (rape; [3]) | Rape plant response rating (rape; [5]) | Rape plant response rating (0 to 10 scale) (rape; Preemergence, Rate 250 g/ha) | Plant response rating, Sugarbeets (sugar beet; [3]) | Velvetleaf plant response rating (velvetleaf; [2]) | Velvetleaf plant response rating (velvetleaf; [5]) | Velvetleaf plant response rating (0 to 10 scale) (velvetleaf; Preemergence, Rate 250 g/ha) | Velvetleaf plant response rating (velvetleaf; [7])
8: Giant foxtail plant response rating (giant foxtail; [2]) | Plant response rating, Giant foxtail (giant foxtail; [6])
5: Giant foxtail plant response rating (giant foxtail; [1]) | Plant response rating, Morningglory (morningglory; [6]) | Plant response rating, Soybean (soybean; [3])

CC(C)N(C(=O)n1oc(=O)n(CCC2OCCCO2)c1=O)c1ccc(F)cc1F [Compound 502]
4: Morningglory plant response rating (morningglory; [7]) | Soybean plant response rating (soybean; [5])
2: Morningglory plant response rating (morningglory; [5]) | Plant response rating, Rape (rape; [4]) | Sugarbeets plant response rating (sugar beet; [5])
5: Soybean plant response rating (soybean; [7]) | Velvetleaf plant response rating (velvetleaf; [5])
6: Plant response rating, B. signalgrass (surinam grass; [4])
10: Plant response rating, Bedstraw (bedstraw; Preemergence, Rate 62 g/ha) | Bedstraw plant response rating (bedstraw; Preemergence, Rate 250 g/ha, scale 0 to 10, 0 is no effect) | Bedstraw plant response rating (bedstraw; Preemergence, Rate 500 g/ha, scale 0 to 10, 0 is no effect) | Plant response rating, Blackgrass (blackgrass; [4]) | Blackgrass plant response rating (blackgrass; [5]) | Blackgrass plant response rating (blackgrass; [8]) | Blackgrass plant response rating (blackgrass; [7]) | B. signalgrass plant response rating (surinam grass; [8]) | B. signalgrass plant response rating (surinam grass; Preemergence, Rate 500 g/ha, scale 0 to 10, 0 is no effect, 10 is complete control) | Plant response rating, Crabgrass (crabgrass; [4]) | Crabgrass plant response rating (crabgrass; [5]) | Crabgrass plant response rating (crabgrass; [7]) | Plant response rating, Giant foxtail (giant foxtail; [4]) | Giant foxtail plant response rating (giant foxtail; [5]) | Giant foxtail plant response rating (giant foxtail; [7]) | Redroot pigweed plant response rating (pigweed; [7]) | Wild oats plant response rating (wild oat; [7])
0: Plant response rating, Cocklebur (cocklebur; [4]) | Cocklebur plant response rating (cocklebur; [5]) | Cocklebur plant response rating (cocklebur; [8]) | Plant response rating, Corn (corn; [4]) | Plant response rating, Morningglory (morningglory; [4]) | Plant response rating, Soybean (soybean; [4]) | Plant response rating, Sugarbeets (sugar beet; [4]) | Plant response rating, Velvetleaf (velvetleaf; [4]) | Plant response rating, Wheat (wheat; [4]) | Plant response rating, Nutsedge (purple nutsedge; [4])
3: Rape plant response rating (rape; [5]) | Wheat plant response rating (wheat; [5])
7: Sugarbeets plant response rating (sugar beet; [7]) | Wheat plant response rating (wheat; [7])
8: Corn plant response rating (corn; [5]) | Velvetleaf plant response rating (velvetleaf; [7])
9: B. signalgrass plant response rating (surinam grass; [5]) | Cocklebur plant response rating (cocklebur; [7]) | Corn plant response rating (corn; [7]) | Plant response rating, Redroot pigweed (pigweed; [4]) | Redroot pigweed plant response rating (pigweed; [5]) | Rape plant response rating (rape; [7]) | Plant response rating, Wild oats (wild oat; [4]) | Wild oats plant response rating (wild oat; [5])
